From publication PMC4712559, “Isolation and characterization of Bradykinin potentiating peptides from Agkistrodon bilineatus venom” (Proteome Science, 2016) come the findings set out here.

For this experiment, the target named is T1, Angiotensin converting enzyme from rabbit lung (Oryctolagus cuniculus, UniProt P12822).
T1 construct: Angiotensin converting enzyme from rabbit lung (A6778- 0.25 UN), was obtained from Sigma; purchased Sigma A6778; host or cells: rabbit lung tissue
T1 sequence (P12822 34-1310): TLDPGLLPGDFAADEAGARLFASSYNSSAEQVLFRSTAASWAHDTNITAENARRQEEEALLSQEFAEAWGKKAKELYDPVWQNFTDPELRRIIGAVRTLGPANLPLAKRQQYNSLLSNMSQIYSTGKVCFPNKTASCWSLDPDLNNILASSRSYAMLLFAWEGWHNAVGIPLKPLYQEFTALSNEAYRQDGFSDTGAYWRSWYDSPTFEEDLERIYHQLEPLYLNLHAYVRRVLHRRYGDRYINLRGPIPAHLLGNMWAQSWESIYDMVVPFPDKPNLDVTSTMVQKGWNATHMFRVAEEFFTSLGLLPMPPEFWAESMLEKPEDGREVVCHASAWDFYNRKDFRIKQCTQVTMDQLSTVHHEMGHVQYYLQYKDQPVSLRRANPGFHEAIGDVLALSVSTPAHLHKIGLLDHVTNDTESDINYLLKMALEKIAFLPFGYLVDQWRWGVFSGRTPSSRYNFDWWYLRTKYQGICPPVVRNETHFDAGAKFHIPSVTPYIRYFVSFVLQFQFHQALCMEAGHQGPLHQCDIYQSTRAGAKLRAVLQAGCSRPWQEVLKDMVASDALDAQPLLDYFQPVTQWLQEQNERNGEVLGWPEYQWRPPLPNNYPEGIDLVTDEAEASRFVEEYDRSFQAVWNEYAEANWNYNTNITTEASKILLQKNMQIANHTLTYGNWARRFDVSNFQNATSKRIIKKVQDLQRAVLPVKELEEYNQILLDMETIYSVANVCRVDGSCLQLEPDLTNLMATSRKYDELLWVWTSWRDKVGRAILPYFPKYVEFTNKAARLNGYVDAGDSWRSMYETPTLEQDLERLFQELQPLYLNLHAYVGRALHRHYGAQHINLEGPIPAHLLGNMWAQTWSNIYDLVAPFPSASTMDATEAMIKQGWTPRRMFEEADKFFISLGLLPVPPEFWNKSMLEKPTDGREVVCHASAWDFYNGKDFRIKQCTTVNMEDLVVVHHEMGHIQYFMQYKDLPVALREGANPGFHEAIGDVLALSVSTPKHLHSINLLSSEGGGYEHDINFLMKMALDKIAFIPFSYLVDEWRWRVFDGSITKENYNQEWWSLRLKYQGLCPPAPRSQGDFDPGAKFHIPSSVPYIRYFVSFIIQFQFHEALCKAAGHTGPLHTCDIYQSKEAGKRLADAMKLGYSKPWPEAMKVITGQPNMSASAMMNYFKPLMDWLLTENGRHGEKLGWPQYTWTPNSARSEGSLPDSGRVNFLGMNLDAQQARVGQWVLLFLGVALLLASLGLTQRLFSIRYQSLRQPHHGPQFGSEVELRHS
Kind of experiment: ACE inhibition by synthetic BPPs, fluorescence energy transfer assay with Abz-Phe-Arg-Lys(Dnp)-Pro-OH. The class given is biochemical. The note with it: for ACE inhibition / IC 50, in words: qualitative comparison of the four synthesized peptides; for IC50: rabbit lung ACE, FRET substrate Abz-Phe-Arg-Lys(Dnp)-Pro-OH, Tris/NaCl/ZnCl2 buffer, pH 7.0, 10 min incubation at room temperature, λex 320 nm, λem 420 nm, 5 min, six serial dilutions 0.500-0.002 mM, 5 μl of dilution in assay, repeated five times. How it is done: The snake venom of Agkistrodon bilineatus bilineatus, was obtained from Venom Supplies, Australia, and was placed at -20° till further use. The venom was collected from the snakes bred in the farms of Venom Supplies, Australia. All the solvents used were of HPLC grade and were obtained from Merck. The substrate Abz-Phe-Arg-Lys (Dnp)-Pro-OH for angiotensin converting enzyme was obtained from BACHEM. Angiotensin converting enzyme from rabbit lung (A6778- 0.25 UN), was obtained from Sigma. The synthesized peptides ZLWPRPQIPP, ZQWAQGRAPHPP, ZSAPGNEAIPP, ZNWPHPQIPP were purchased from China Peptide company, Shanghai, China. The peptides were 95 % pure, and were kept at -20° till use. The N-terminus of these synthetic peptide is pyroglutame (represented by Z), while the C-terminus is an amino acid with free carboxylic group.
ACE activities in the presence of venom peptides were determined by a fluorescence energy transfer assay using Abz-Phe-Arg-Lys (Dnp)-Pro-OH as a substrate. 1 mg of the substrate was weighed and dissolved in 1 ml DMSO. The exact concentration of the substrate was determined by taking four different volumes of the substrate stock solution, and constructing a standard curve spectrophometrically at 365 nm, using the molar extinction coefficient of the Dnp group ([…] = 17,300 M^−1 cm^−1), according to the Beer’s Lambert Law (A = εDnp x l x c). A stock solution of the enzyme was prepared by suspending 0.25 UN of ACE in 250 μl of the assay buffer (12.10 g Tris-base, 2.92 g NaCl and 1.36 mg ZnCl2 in 1 l of deionised water, pH to 7.0 adjusted with HCl).
In order to determine the IC 50 values of the synthesized peptides, a stock solution (10 mM) of each was prepared in the assay buffer. From the stock solutions, six serial dilutions were prepared for each peptide. The concentrations of the six dilutions were as follows, 0.500 mM, 0.167 mM, 0.056 mM, 0.019 mM, 0.006 mM and 0.002 mM respectively. In the final assay, 85 μl of the assay buffer, 2 μl of the enzyme stock solution, and 5 μl of the dilute peptide solution were added. The mixture was incubated for 10 min at room temperature. The reaction was started by adding 10 μl of the working solution of the substrate (20 μl of the stock +280 μl of the assay buffer). The same procedure was adopted using 5 μl of venom fractions instead of the synthetic peptides. Fluorescence measurements were made at λex = 320 nm and at λem = 420 nm, for 5 min each. These experiments were repeated five times to ensure accuracy of the results.

Structures are written as SMILES. Where a SMILES comes first, the peptide text is derived from it.

For orientation: IC50 means the point on the concentration scale where inhibition reaches its midpoint. A lower IC50 goes with greater potency in that assay. `CC[C@H](C)[C@H](NC(=O)[C@H](CCC(N)=O)NC(=O)[C@@H]1CCCN1C(=O)[C@H](CCCNC(=N)N)NC(=O)[C@@H]1CCCN1C(=O)[C@H](Cc1c[nH]c2ccccc12)NC(=O)[C@H](CC(C)C)NC(=O)[C@@H]1CCC(=O)N1)C(=O)N1CCC[C@H]1C(=O)N1CCC[C@H]1C(=O)O` [Inhibitor 1 (P6)] (HELM PEPTIDE1{[Glp].L.W.P.R.P.Q.I.P.P}$$$$V2.0) registered a half-maximal inhibitory concentration (IC50) of 640 nM. Further, the “ACE inhibition / IC 50, in words” value (listed as ZLWPRPQXPP) was “strongest inhibitors”. Besides, under “listed as peptide 6”, the “ACE inhibition / IC 50, in words” value is reported as “low IC 50 values”.
`C[C@H](NC(=O)[C@H](Cc1c[nH]c2ccccc12)NC(=O)[C@H](CCC(N)=O)NC(=O)[C@@H]1CCC(=O)N1)C(=O)N[C@@H](CCC(N)=O)C(=O)NCC(=O)N[C@@H](CCCNC(=N)N)C(=O)N[C@@H](C)C(=O)N1CCC[C@H]1C(=O)N[C@@H](Cc1c[nH]cn1)C(=O)N1CCC[C@H]1C(=O)N1CCC[C@H]1C(=O)O` [Inhibitor 2 (P7)] (HELM PEPTIDE1{[Glp].Q.W.A.Q.G.R.A.P.H.P.P}$$$$V2.0) returned an IC50 of 3630 nM. Moreover, the “ACE inhibition / IC 50, in words” value (listed as ZQWAQGRAPHPP) is given as “low IC 50 value”. Further, for the setting “listed as peptide 7”, the “ACE inhibition / IC 50, in words” value is on record as “low IC 50 values”.
Regarding `CC[C@H](C)[C@H](NC(=O)[C@H](C)NC(=O)[C@H](CCC(=O)O)NC(=O)[C@H](CC(N)=O)NC(=O)CNC(=O)[C@@H]1CCCN1C(=O)[C@H](C)NC(=O)[C@H](CO)NC(=O)[C@@H]1CCC(=O)N1)C(=O)N1CCC[C@H]1C(=O)N1CCC[C@H]1C(=O)O` [Inhibitor 3 (P5)] (HELM PEPTIDE1{[Glp].S.A.P.G.N.E.A.I.P.P}$$$$V2.0), the “ACE inhibition / IC 50, in words” value is “much higher value” and the IC50 is 30000 nM.
In turn, `CC[C@H](C)[C@H](NC(=O)[C@H](CCC(N)=O)NC(=O)[C@@H]1CCCN1C(=O)[C@H](Cc1c[nH]cn1)NC(=O)[C@@H]1CCCN1C(=O)[C@H](Cc1c[nH]c2ccccc12)NC(=O)[C@H](CC(N)=O)NC(=O)[C@@H]1CCC(=O)N1)C(=O)N1CCC[C@H]1C(=O)N1CCC[C@H]1C(=O)O` [Inhibitor 4 (P3)] (HELM PEPTIDE1{[Glp].N.W.P.H.P.Q.I.P.P}$$$$V2.0) gave an IC50 of 760 nM. Further, the “ACE inhibition / IC 50, in words” value (listed as ZNWPHPQXPP) is on record as “strongest inhibitors”. In addition, the “ACE inhibition / IC 50, in words” value (listed as peptide 5) is recorded as “low IC 50 values”.
